Laboratory results taken from ChEMBL document CHEMBL4359915, “Design, synthesis and biological evaluation of novel diazaspiro[4.5]decan-1-one derivatives as potential chitin synthase inhibitors and antifungal agents” (Eur J Med Chem, 2019).
≈ marks a conversion by molar mass, not a printed value.

What was measured:
Candida tropicalis = assay: Inhibition of Candida tropicalis ATCC 750 chitin synthase at 300 ug/ml using UDP-GlcNAc as substrate relative to control
Candida albicans [1] = assay: Antifungal activity against Candida albicans ATCC 76615 assessed as growth inhibition measured after 24 hrs by two-fold broth dilution method; type: functional; conditions: ATCC 76615, 24 h
Aspergillus fumigatus [2] = assay: Antifungal activity against Aspergillus fumigatus GIMCC 3.19 assessed as growth inhibition measured after 24 hrs by two-fold broth dilution method; type: functional; conditions: GIMCC 3.19, 24 h
Candida albicans [3] = assay: Antifungal activity against Candida albicans ATCC 90023 assessed as growth inhibition measured after 24 hrs by two-fold broth dilution method; type: functional; conditions: ATCC 90023, 24 h
Cryptococcus neoformans [4] = assay: Antifungal activity against Cryptococcus neoformans ATCC 32719 assessed as growth inhibition measured after 24 hrs by two-fold broth dilution method; type: functional; conditions: ATCC 32719, 24 h
Aspergillus flavus [5] = assay: Antifungal activity against Aspergillus flavus ATCC 16870 assessed as growth inhibition measured after 24 hrs by two-fold broth dilution method; type: functional; conditions: ATCC 16870, 24 h
Staphylococcus aureus [6] = assay: Antibacterial activity against methicillin-resistant Staphylococcus aureus N315 assessed as growth inhibition measured after 24 hrs by two-fold broth dilution method; type: functional; conditions: N315, 24 h
Staphylococcus aureus [7] = assay: Antibacterial activity against Staphylococcus aureus ATCC 25923 assessed as growth inhibition measured after 24 hrs by two-fold broth dilution method; type: functional; conditions: ATCC 25923, 24 h
Bacillus spizizenii = assay: Antibacterial activity against Bacillus subtilis ATCC 6633 assessed as growth inhibition measured after 24 hrs by two-fold broth dilution method; type: functional; conditions: ATCC 6633, 24 h
Escherichia coli = assay: Antibacterial activity against Escherichia coli JM 109 assessed as growth inhibition measured after 24 hrs by two-fold broth dilution method; type: functional; conditions: JM 109, 24 h
Pseudomonas aeruginosa = assay: Antibacterial activity against Pseudomonas aeruginosa ATCC 9027 assessed as growth inhibition measured after 24 hrs by two-fold broth dilution method; type: functional; conditions: ATCC 9027, 24 h
[8] = Inhibition of Candida tropicalis ATCC 750 chitin synthase using UDP-GlcNAc as substrate
Candida albicans [9] = assay: Antifungal activity against Candida albicans ATCC 76615 assessed as fractional inhibitory concentration index after 24 hrs in presence of fluconazole by two-dimensional broth microdilution checkboard assay; type: functional
Aspergillus fumigatus [10] = assay: Antifungal activity against Aspergillus fumigatus GIMCC 3.19 assessed as fractional inhibitory concentration index after 24 hrs in presence of fluconazole by two-dimensional broth microdilution checkboard assay; type: functional
Cryptococcus neoformans [11] = assay: Antifungal activity against Cryptococcus neoformans ATCC 32719 assessed as fractional inhibitory concentration index after 24 hrs in presence of fluconazole by two-dimensional broth microdilution checkboard assay; type: functional
Aspergillus flavus [12] = assay: Antifungal activity against Aspergillus flavus ATCC 16870 assessed as fractional inhibitory concentration index after 24 hrs in presence of fluconazole by two-dimensional broth microdilution checkboard assay; type: functional
Candida albicans [13] = assay: Antifungal activity against Candida albicans ATCC 76615 after 24 hrs in presence of fluconazole by two-dimensional broth microdilution checkboard assay; type: functional; conditions: ATCC 76615, 24 h
Aspergillus fumigatus [14] = assay: Antifungal activity against Aspergillus fumigatus GIMCC 3.19 after 24 hrs in presence of fluconazole by two-dimensional broth microdilution checkboard assay; type: functional; conditions: GIMCC 3.19, 24 h
Cryptococcus neoformans [15] = assay: Antifungal activity against Cryptococcus neoformans ATCC 32719 after 24 hrs in presence of fluconazole by two-dimensional broth microdilution checkboard assay; type: functional; conditions: ATCC 32719, 24 h
Aspergillus flavus [16] = assay: Antifungal activity against Aspergillus flavus ATCC 16870 after 24 hrs in presence of fluconazole by two-dimensional broth microdilution checkboard assay; type: functional; conditions: ATCC 16870, 24 h
Proteus vulgaris = assay: Antibacterial activity against Bacillus proteus ATCC 8427 assessed as growth inhibition measured after 24 hrs by two-fold broth dilution method; type: functional; conditions: ATCC 8427, 24 h
Candida albicans [17] = assay: Antifungal activity against Candida albicans ATCC 76615 assessed as fluconazole MIC after 24 hrs in presence of fluconazole by two-dimensional broth microdilution checkboard assay; type: functional; conditions: ATCC 76615, 24 h
Aspergillus fumigatus [18] = assay: Antifungal activity against Aspergillus fumigatus GIMCC 3.19 assessed as fluconazole MIC after 24 hrs in presence of fluconazole by two-dimensional broth microdilution checkboard assay; type: functional; conditions: GIMCC 3.19, 24 h
Cryptococcus neoformans [19] = assay: Antifungal activity against Cryptococcus neoformans ATCC 32719 assessed as fluconazole MIC after 24 hrs in presence of fluconazole by two-dimensional broth microdilution checkboard assay; type: functional; conditions: ATCC 32719, 24 h
Aspergillus flavus [20] = assay: Antifungal activity against Aspergillus flavus ATCC 16870 assessed as fluconazole MIC after 24 hrs in presence of fluconazole by two-dimensional broth microdilution checkboard assay; type: functional; conditions: ATCC 16870, 24 h
[21] = Inhibition of Saccharomyces cerevisiae CGMCC 2.145 chitin synthase using GlcNAc and UDP-GlcNAc as substrate incubated for 60 mins by microplate reader analysis

Row | SMILES | inhibition (Candida tropicalis) [%] | MIC (Candida albicans [1]) | MIC (Aspergillus fumigatus [2]) | MIC (Candida albicans [3]) [µM] | MIC (Cryptococcus neoformans [4]) | MIC (Aspergillus flavus [5]) | MIC (Staphylococcus aureus [6]) [µM] | MIC (Staphylococcus aureus [7]) [µM] | MIC (Bacillus spizizenii) [µM] | MIC (Escherichia coli) [µM] | MIC (Pseudomonas aeruginosa) [µM] | IC50 [8] [µM] | fractional inhibitory concentration index (FICI) (Candida albicans [9]) | fractional inhibitory concentration index (FICI) (Aspergillus fumigatus [10]) | fractional inhibitory concentration index (FICI) (Cryptococcus neoformans [11]) | fractional inhibitory concentration index (FICI) (Aspergillus flavus [12]) | MIC (Candida albicans [13]) [µM] | MIC (Aspergillus fumigatus [14]) [µM] | MIC (Cryptococcus neoformans [15]) [µM] | MIC (Proteus vulgaris) [µM] | further results
1 | O=C(Nc1ccc(Cl)cc1)[C@H](O)[C@@H](O)C(=O)N1CCC2(CCNC2=O)CC1 | 66.5 | 162 µM | 323 µM | 320 (≈ 127 µg/mL) | 162 µM | 323 µM | 650 (≈ 257 µg/mL) | 320 (≈ 127 µg/mL) | 1290 (≈ 511 µg/mL) | 320 (≈ 127 µg/mL) | 1290 (≈ 511 µg/mL) | 270 | 0.3 | 0.8 | 2 | 1 | 10 | 81 | 162 | 650 (≈ 257 µg/mL) | MIC (Aspergillus flavus [16]): 162 µM; MIC (Candida albicans [17]): 13 µM; MIC (Aspergillus fumigatus [18]): 52 µM; MIC (Cryptococcus neoformans [19]): 52 µM; MIC (Aspergillus flavus [20]): 104 µM
2 | COc1ccc(N2CCN(C(=O)[C@H](O)[C@@H](O)C(=O)Nc3c(O)c4cc(O)ccc4oc3=O)CC2)cc1 |  | 16 to 64 µg/mL | 16 to 64 µg/mL |  | 16 to 64 µg/mL | 16 to 64 µg/mL |  |  |  |  |  |  |  |  |  |  |  |  |  |  | IC50 [21]: 100 µM
3 | O=C(Nc1ccc(F)c(Cl)c1)[C@H](O)[C@@H](O)C(=O)N1CCC2(CCNC2=O)CC1 | 70.6 | 309 µM | 155 µM | 150 (≈ 62.1 µg/mL) | 309 µM | 155 µM | 150 (≈ 62.1 µg/mL) | 310 (≈ 128 µg/mL) | 620 (≈ 257 µg/mL) | 310 (≈ 128 µg/mL) | 620 (≈ 257 µg/mL) | 220 | 1.3 | 1.5 | 2.3 | 1 | 77 | 155 | 77 | 310 (≈ 128 µg/mL) | MIC (Aspergillus flavus [16]): 77 µM; MIC (Candida albicans [17]): 52 µM; MIC (Aspergillus fumigatus [18]): 52 µM; MIC (Cryptococcus neoformans [19]): 104 µM; MIC (Aspergillus flavus [20]): 104 µM
4 | O=C(Nc1cc(C(F)(F)F)cc(C(F)(F)F)c1)[C@H](O)[C@@H](O)C(=O)N1CCC2(CCNC2=O)CC1 | 2.3 | 32 µM | 515 µM | 260 (≈ 129 µg/mL) | 64 µM | 515 µM | 260 (≈ 129 µg/mL) | 1030 (≈ 512 µg/mL) | 510 (≈ 254 µg/mL) | 60 (≈ 29.8 µg/mL) | 510 (≈ 254 µg/mL) |  | 1 | 0.8 | 3 | 0.5 | 16 | 129 | 129 | 1030 (≈ 512 µg/mL) | MIC (Aspergillus flavus [16]): 129 µM; MIC (Candida albicans [17]): 26 µM; MIC (Aspergillus fumigatus [18]): 52 µM; MIC (Cryptococcus neoformans [19]): 52 µM; MIC (Aspergillus flavus [20]): 52 µM
5 | COc1ccc(NC(=O)[C@H](O)[C@@H](O)C(=O)N2CCC3(CCNC3=O)CC2)cc1 | 78.3 | 164 µM | 82 µM | 330 (≈ 129 µg/mL) | 327 µM | 164 µM | 650 (≈ 254 µg/mL) | 330 (≈ 129 µg/mL) | 1310 (≈ 513 µg/mL) | 330 (≈ 129 µg/mL) | 1310 (≈ 513 µg/mL) | 120 | 2 | 1 | 1.5 | 0.8 | 164 | 41 | 327 | 330 (≈ 129 µg/mL) | MIC (Aspergillus flavus [16]): 82 µM; MIC (Candida albicans [17]): 52 µM; MIC (Aspergillus fumigatus [18]): 52 µM; MIC (Cryptococcus neoformans [19]): 26 µM; MIC (Aspergillus flavus [20]): 52 µM
6 | O=C(Nc1cccc(Br)c1)[C@H](O)[C@@H](O)C(=O)N1CCC2(CCNC2=O)CC1 | 79.4 | 290 µM | 1160 µM | 580 (≈ 255 µg/mL) | 290 µM | 280 µM | 290 (≈ 128 µg/mL) | 290 (≈ 128 µg/mL) | 1160 (≈ 511 µg/mL) | 580 (≈ 255 µg/mL) | 580 (≈ 255 µg/mL) | 150 |  |  |  |  |  |  |  | 290 (≈ 128 µg/mL) | 
7 | O=C(Nc1ccc(F)cc1F)[C@H](O)[C@@H](O)C(=O)N1CCC2(CCNC2=O)CC1 | 65.2 | 640 µM | 80 µM | 320 (≈ 127 µg/mL) | 640 µM | 320 µM | 80 (≈ 31.8 µg/mL) | 320 (≈ 127 µg/mL) | 160 (≈ 63.6 µg/mL) | 320 (≈ 127 µg/mL) | 320 (≈ 127 µg/mL) | 290 |  |  |  |  |  |  |  | 160 (≈ 63.6 µg/mL) | 
